Measured values from patent US9611254B2, “Triazole compounds and their use as gamma secretase modulators” (Acturum Life Science AB, priority 2013, dated 2017).

Columns and labels:
Aβ42 [1] = test: HEK assay: Aβ42 secreted by HEK cells stably expressing APPswe (Meso Scale electrochemiluminescence); assay type: cell-based, Human; conditions: 4-6 hours incubation with compound, Aβ42 in cell medium; for IC50: Homo sapiens, HEK293, HEK cell line stably expressing APPswe, read-out: pIC50 Aβ42 HEK assay (converted)
Experimental: Compounds were diluted in 100% DMSO and stored at […] prior to use. Human Embryonic Kidney (HEK) cell line stably expressing APP with the Swedish mutation (APPswe) was cultured using Dulbecco's Modified Eagles medium (DMEM) supplied with […] glucose, Na-pyruvate and GlutaMAX, 10% Foetal bovine serum, 100 U/mL penicillin-streptomycin (PEST), 1× non-essential amino acids (NEAA), […] Hepes, 100 μg/mL Zeocine. Cells at about 80% confluence were washed with PBS, detached from culture flasks using 1× Trypsin/EDTA diluted in PBS, re-suspended in cell media and plated in 384-well poly-d-lysine coated cell culture plates at about 10000-15000 cells/well, in 25 μL cell media. Optionally, cryo-preserved cells (frozen and stored at −140° C. in 90% cell media and 10% DMSO) were thawed, washed and plated as above. Next the cells were incubated for 15-24 h at 37° C. and 5% CO2, after which cell medium was changed. Fresh medium containing test compound diluted ×200 from prepared compound plate was added to the cells before further incubation for 4-6 hours at 37° C. and 5% CO2. After incubation with test compound the amount of Aβ peptides, including Aβ42, Aβ40, Aβ39, Aβ38 and Aβ37, secreted to cell medium was analyzed using the electrochemiluminescence assay technology from Meso Scale Discovery Technology, in combination with specific antibodies raised against the different Aβ peptides. Potential cytotoxic effects of the compounds were assayed by measuring the ATP content (ViaLight) from cell lysate.

Aβ42 [2] = test: PCN assay: Aβ42 secreted by mouse primary cortical neuronal cells (ELISA); assay type: cell-based; conditions: primary cortical neuronal cells from 16-day mouse embryos, 16-20 hours incubation with compound, Aβ42 in cell medium; for IC50: Mus musculus, read-out: pIC50 Aβ42 PCN assay (converted)
Experimental: Compounds were diluted in 100% DMSO and stored at […] prior to use. Primary cortical neuronal cells (PCN) were isolated from 16-day mouse embryos and cultured in Ham's F12 media containing 10% Foetal bovine serum, 10 mM Hepes, 2 mM L-glutamine and 100 U/mL Penicillin-Streptomycin. 150000-250000 cells/well, in 200 μL cell media were seeded onto 96-well poly-D-Lysine coated plates. After incubation at 37° C., 5% CO2 for five days, the media was exchanged for fresh medium containing test compound diluted ×100, before further incubation for 16-20 hours at 37° C. and 5% CO2. After incubation with test compound the amount of Aβ42 peptides secreted to cell medium was analyzed using the solid phase sandwich Enzyme-Linked-Immuno-Sorbent Assay (ELISA)-kit from Invitrogen for detection of mouse βAmyloid 1-42. Potential cytotoxic effects of the compounds were assayed by measuring the ATP content (Via Light) from cell lysate.

| SMILES | IC50 (Aβ42 [1]) | IC50 (Aβ42 [2]) | pIC50 Aβ42 PCN assay (Aβ42 [2]) | pIC50 Aβ42 HEK assay (Aβ42 [1]; HEK cell line stably expressing APPswe) |
| --- | --- | --- | --- | --- |
| COc1cc(Nc2nc(N3CCC3c3ccccc3)n(CC(C)(C)O)n2)ccc1-n1cnc(C)c1 (racemic) [Example 5, 1-(3-(3-Methoxy-4-(4-methyl-1H-imidazol-1-yl)phenylamino)-5-(2-phenylazetidin-1-yl)-1H-1,2,4-triazol-1-yl)-2-methylpropan-2-ol] | 25.1 nM | 31.6 nM | – | – |
| COc1cc(Nc2nc(N3CCC3c3ccccc3)n(CC(C)(C)O)n2)ccc1-n1cnc(C)c1 (single isomer, unassigned; isomer 1) [Example 6, 1-(3-(3-Methoxy-4-(4-methyl-1H-imidazol-1-yl)phenylamino)-5-(2-phenylazetidin-1-yl)-1H-1,2,4-triazol-1-yl)-2-methylpropan-2-ol, isomer 1] | 25.1 nM | – | 7.2 | – |
| COc1cc(Nc2nc(N3CCC3c3ccccc3)n(CC(C)(C)O)n2)ccc1-n1cnc(C)c1 (single isomer, unassigned; isomer 2) [Example 7, 1-(3-(3-Methoxy-4-(4-methyl-1H-imidazol-1-yl)phenylamino)-5-(2-phenylazetidin-1-yl)-1H-1,2,4-triazol-1-yl)-2-methylpropan-2-ol, isomer 2] | – | – | 7.7 | 7.8 |
| COc1cc(Nc2nc(N3CC(c4ccccc4)C3)n(CC(C)(C)O)n2)ccc1-n1cnc(C)c1 [Example 1, 1-(3-(3-Methoxy-4-(4-methyl-1H-imidazol-1-yl)phenylamino)-5-(3-phenylazetidin-1-yl)-1H-1,2,4-triazol-1-yl)-2-methylpropan-2-ol] | 39.8 nM | 15.8 nM | – | – |
| COc1cc(Nc2nc(N3CC(F)(c4ccccc4)C3)n(CC(C)(C)O)n2)ccc1-n1cnc(C)c1 [Example 2, 1-(5-(3-Fluoro-3-phenylazetidin-1-yl)-3-(3-methoxy-4-(4-methyl-1H-imidazol-1-yl)phenylamino)-1H-1,2,4-triazol-1-yl)-2-methylpropan-2-ol] | 50.1 nM | 31.6 nM | – | – |
| COc1cc(Nc2nc(N3CC(c4ccccc4)C3)n(C)n2)ccc1-n1cnc(C)c1 [Example 3, N-(3-Methoxy-4-(4-methyl-1H-imidazol-1-yl)phenyl)-1-methyl-5-(3-phenylazetidin-1-yl)-1H-1,2,4-triazol-3-amine] | 39.8 nM | 79.4 nM | – | – |
| COc1cc(Nc2nc(N3CCC3c3ccccc3)n(C)n2)ccc1-n1cnc(C)c1 (stereo not drawn) [Example 4, N-(3-Methoxy-4-(4-methyl-1H-imidazol-1-yl)phenyl)-1-methyl-5-(2-phenylazetidin-1-yl)-1H-1,2,4-triazol-3-amine] | 25.1 nM | 25.1 nM | – | – |
| COc1cc(Nc2nc(N3CC4(CCC4)C3)n(CC(C)(C)O)n2)ccc1-n1cnc(C)c1 [Example 8, 1-(3-(3-Methoxy-4-(4-methyl-1H-imidazol-1-yl)phenylamino)-5-(2-azaspiro[3.3]heptan-2-yl)-1H-1,2,4-triazol-1-yl)-2-methylpropan-2-ol] | 50.1 nM | 63.1 nM | – | – |
| COc1cc(Nc2nc(N3CCC34CCCC4)n(CC(C)(C)O)n2)ccc1-n1cnc(C)c1 [Example 9, 1-(3-(3-Methoxy-4-(4-methyl-1H-imidazol-1-yl)phenylamino)-5-(1-azaspiro[3.4]octan-1-yl)-1H-1,2,4-triazol-1-yl)-2-methylpropan-2-ol] | 31.6 nM | 31.6 nM | – | – |
